# Paper PMC10117725, “From an Hsp90 - binding protein to a peptide drug” (microLife, 2022)
# Where no end group is shown, it is not given here.
# How the values were obtained:
# [1] = system: S. aureus USA300 invasion into N/TERT-1 cells; experiment: S. aureus USA300 invasion into N/TERT-1 keratinocytes; assay type: cell-based, human; conditions: pretreatment with L15 20 µM, L13 30 µM, geldanamycin 5 µM or α-Hsp90α antibody
# Description: (§1) The invasion protocol was adapted from our previous papers (Nguyen et al. [2015], Tribelli et al. [2020]). About 5 × 10^5 Keratinocytes were seeded in a 24 well plate (Greiner, Frickenhausen, Germany) to attain a monolayer of ∼10^6 cells/well. Staphylococcusaureus was grown overnight at 37°C, centrifuged and suspended in invasion medium (DMEM with 10% FBS for HaCaT and K-SFM for NTERT-1 cells). The adherent keratinocytes were washed with PBS and supplemented with invasion medium followed by treatment with 20 µM of L15, 30 µM of L13, or 5 µM geldanamycin (Sigma-Aldrich, Germany) or monoclonal antibodies specific against Hsp90α (α‐Hsp90α, Abcam) for 1 h. After 1 h, 100 µl of bacterial suspension was added to each well to attain a MOI (multiplicity of infection) of 30 and incubated with cells for 1.5 h. Subsequently, the extracellular bacteria were killed with treatment of 2.5 μg/ml lysostaphin (Sigma-Aldrich, Germany) for 1.5 h. The cells were then washed, lysed, mechanically detached by scraping, diluted, and enumerated on TSA (Tryptic Soy Agar) plates to quantify the intracellular bacteria.
# [2] = Solubility in PBS; assay type: physicochemical; conditions: qualitative statement
# [3] = system: S. aureus USA300 infected PBMCs; experiment: Cytokine release of S. aureus USA300 infected PBMCs (ELISA); assay type: cell-based, human; conditions: L15 20 µM, L13 30 µM, geldanamycin 5 µM; 20 h; n = 5; vs unstimulated infected PBMCs
# [4] = system: S. aureus USA300 internalization by HaCaT cells; experiment: S. aureus USA300 invasion (internalization) into HaCaT keratinocytes; assay type: cell-based, human; conditions: for relative invasion (intracellular USA300 count) in HaCaT at 20 µM: peptide 20 µM; for relative invasion (intracellular USA300 count) in HaCaT at 50 µM: peptide 50 µM; for decrease in uptake/invasion of S. aureus USA300 by HaCaT cells compared to untreated control: preincubation with L15 20 µM, L13 30 µM, geldanamycin 5 µM or α-Hsp90α antibody, MOI 30; for concentration from which a significant reduction of intracellular USA300 was observed: tested 0 to 50 µM in HaCaT
# Description: as §1, with “[…],” for “washed with PBS and supplemented with invasion medium followed by treatment with 20 µM of L15, 30 µM of L13,”
# [5] = system: MONO-MAC-6 (MM6) cells; experiment: MTT cytotoxicity in MM6 cells; assay type: cell-based, human; conditions: 24 h
# Description: MTT (3-(4,5-dimethylthiazol-2-yl)-2,5-diphenyl tetrazolium bromide) assay was employed to analyze the cytotoxicity of peptides and geldanamycin to the cells. 5 × 10^5 cells were seeded in a 96 flat bottom well plate and incubated for 2.5 or 24 h at 37°C with 5% CO2. The cells were then treated with increasing concentration (0 to 200 µM) of peptides or geldanamycin for 24 h. After the incubation, 10 μl of the MTT labelling reagent is added to each well to attain a final concentration 0.5 mg/ml, followed by 4 h incubation. Metabolically active cells convert the yellow tetrazolium salt to purple formazan crystals, which were solubilized using the solubilization solution (DMSO) and measured for absorbance at λmax/λref–570/690 nm (Saising et al. [2018]).
# [6] = target: T1, Lpl1 (Staphylococcus aureus, UniProt Q2FJK4); experiment: Dot blot / immunoblot interaction with Lpl1-his; assay type: binding; conditions: 2 µg blotted, anti-6X His immunodetection
# T1 construct: made in house
# T1 sequence (Q2FJK4 23-257): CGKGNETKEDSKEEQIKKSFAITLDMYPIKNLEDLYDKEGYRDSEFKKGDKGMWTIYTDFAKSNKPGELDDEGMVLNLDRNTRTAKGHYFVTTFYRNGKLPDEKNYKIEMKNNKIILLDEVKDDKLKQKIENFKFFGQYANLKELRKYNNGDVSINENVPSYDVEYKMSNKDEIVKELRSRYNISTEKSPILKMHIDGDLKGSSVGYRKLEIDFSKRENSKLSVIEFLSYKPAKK
# Description: Two µg of each peptide was blotted (dot blot) directly on PDV nitrocellulose membrane and blocked with ROTI®Block (Carl Roth, Germany). After washing, the membrane was then incubated with 20 μg of recombinant Hsp90α (Abcam)/Lpl1-his protein at 4°C overnight. In case of interaction studies with Hsp90α, α-Hsp90α (produced in mouse, Abcam) was used as the primary antibody and for interaction studies with Lpl1-his, Anti-6X His tag antibody (also produced in mouse, Sigma-Aldrich, Germany) was used. Alkaline phosphatase conjugated goat-α-mouse IgG (Sigma-Aldrich, Germany) served as the secondary antibody. Detection was done using BCIP®/NBT solution (Sigma, Germany). Lpl1-his was isolated and purified as described in our previous paper (Tribelli et al. [2020]).
# [7] = system: S. aureus Newman; experiment: Mouse S. aureus Newman bacteremia model; assay type: in vivo, NMRI mice
# Description: About 8- to 10-week-old female NMRI mice were purchased from Envigo (Venray, the Netherlands) and stored under standard temperature, light, and nutrition conditions in the animal facility of the Department of Rheumatology and Inflammation Research, University of Gothenburg. […] To study the effect of L15 on S. aureus bacteremia two separate experiments were performed. The mice were treated intraperitoneally with L15 (10 mg/kg) in 200 µl of PBS every 12 h, starting 2 h before inoculation with bacteria and continuing until the animals were sacrificed. Mice were challenged with septic dose of 2 × 10^6 CFU/mouse of S aureus Newman. To induce the S. aureus systemic infection in NMRI mice, 0.2 ml of S. aureus Newman suspension was inoculated intravenously into the tail vein of the mice. During the course of the experiments, the mice were regularly weighed until the mice were sacrificed. After sacrificing the mice at day 7, kidneys from mice were aseptically removed, homogenised, serially diluted with PBS and enumerated to quantify the bacterial CFUs.
# [8] = system: human peripheral blood mononuclear cells (PBMCs); experiment: Cytokine induction in PBMCs (bead-based immunoassay); assay type: cell-based; conditions: IL-6, IL10, IL-12p70, IL12-p40, IL-23, TNFα, IL-1ß, IL-1RA, IP-10, TARC; 20 h
# Description: Human peripheral blood mononuclear cells (PBMCs) from buffy coat blood samples of healthy donors were stimulated with the indicated doses of L15 and L13 for 20 h. For the subsequent bead-based immunoassay, the cell culture supernatants of a total of four buffy coats per immunoassay were used. Each of the stimulations was performed in biological duplicates. The secreted cytokines were then identified and quantified using the immunofluorescent bead-based immunoassay LEGENDplex® Human Macrophage/Microglia Panel (13-plex) and the corresponding Data Analysis Software from BioLegend. Muramyl Dipeptide (MDP) which activates the NOD-2 receptors was used as the positive control.
Sequence,invasion of S. aureus USA300 into N/TERT-1 cells [1],solubility in PBS [2],IL-6 production of infected PBMCs [3],relative invasion (intracellular USA300 count) in HaCaT at 20 µM ([4]; untreated control 1.0 ± 0.0),"relative invasion (intracellular USA300 count) in HaCaT at 40 µM ([4]; peptide 40 µM, untreated control 1.0 ± 0.0)",relative invasion (intracellular USA300 count) in HaCaT at 50 µM ([4]; untreated control 1.0 ± 0.0),decrease in uptake/invasion of S. aureus USA300 by HaCaT cells compared to untreated control [4],concentration from which a significant reduction of intracellular USA300 was observed [4],"percentage of viable cells, MM6, 1 µM ([5]; 1 µM)","percentage of viable cells, MM6, 200 µM ([5]; 200 µM)",direct interaction with Lpl1 [6],"survival during the 7-day observation period ([7]; L15 10 mg/kg i.p. every 12 h, 40% of the control group died)","bacterial load in the kidneys ([7]; L15 10 mg/kg i.p. every 12 h, day 7, vs PBS control)","weight loss of infected mice ([7]; L15 10 mg/kg i.p. every 12 h from 2 h before i.v. 2 × 10^6 CFU/mouse, 7 days, vs PBS control)",reduction of lethality of S. aureus in the mouse model ([7]; mouse bacteremia model),cytokine inducing activity in PBMCs [8]
GHYFVTTFY [L13],inhibits the invasion,poor solubility in PBS,significantly increased,0.67 ± 0.05,0.41 ± 0.03,0.73 ± 0.18,50–60%,≥ 20 µM,106.71 ± 6.40%,82.43 ± 8.59%,interact directly,,,,,
TAKGHYFVTTFYRNG [L15],inhibits the invasion,better soluble,significantly increased,0.33 ± 0.24,,0.40 ± 0.05,50–60%,≥ 20 µM,,,interact directly,all mice treated with L15 survived,No significant difference,significantly reduced,about 40%,relatively inert
